# US20150105252A1, “SUBSTITUTED PYRAZOLES AS HERBICIDES” (E I DU PONT DE NEMOURS AND COMPANY, priority 2013, published 2015)
# Columns and labels:
# [1] = tested on: bluegrass; test: Test D preemergence; assay type: in vivo, Poa annua; conditions: Preemergence, scale 0 to 100
# How it was run: (§1)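 Pre: sown in silt loam, sprayed at once. Post: grown in peat-moss/vermiculite mix, sprayed at 1–4 leaves (2–18 cm). Formulation: non-phytotoxic solvent + surfactant. Read-out: visual 0–100 vs controls, 14–21 d.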
# [2] = tested on: canarygrass; test: Test D preemergence; assay type: in vivo, Phalaris minor; conditions: Preemergence, scale 0 to 100
# How it was run: as §1
# [3] = tested on: field violet; test: Test D preemergence; assay type: in vivo, Viola arvensis; conditions: Preemergence, scale 0 to 100
# How it was run: as §1
# [4] = tested on: deadnettle; test: Test D preemergence; assay type: in vivo, Lamium amplexicaule; conditions: Preemergence, scale 0 to 100
# How it was run: as §1
# [5] = tested on: ryegrass, Italian; test: Test D preemergence; assay type: in vivo, Lolium multiflorum; conditions: Preemergence, scale 0 to 100
# How it was run: as §1
# [6] = tested on: pigweed; test: Test D preemergence; assay type: in vivo, Amaranthus retroflexus; conditions: Preemergence, scale 0 to 100
# How it was run: as §1
# [7] = tested on: chamomile; test: Test D preemergence; assay type: in vivo, Matricaria inodora; conditions: Preemergence, scale 0 to 100
# How it was run: as §1
# [8] = tested on: speedwell; test: Test D preemergence; assay type: in vivo, Veronica persica; conditions: Preemergence, scale 0 to 100
# How it was run: as §1
# [9] = tested on: barley, spring; test: Test D preemergence; assay type: in vivo, Hordeum vulgare; conditions: Preemergence, scale 0 to 100
# How it was run: as §1
# [10] = tested on: barley, winter; test: Test D preemergence; assay type: in vivo, Hordeum vulgare; conditions: Preemergence, scale 0 to 100
# How it was run: as §1
# [11] = tested on: buckwheat, wild; test: Test D preemergence; assay type: in vivo, Polygonum convolvulus; conditions: Preemergence, scale 0 to 100
# How it was run: as §1
# [12] = tested on: bluegrass; test: Test D postemergence; assay type: in vivo, Poa annua; conditions: scale 0 to 100
# How it was run: as §1
# [13] = tested on: blackgrass; test: Test D postemergence; assay type: in vivo, Alopecurus myosuroides; conditions: scale 0 to 100
# How it was run: as §1
# [14] = tested on: galium; test: Test D postemergence; assay type: in vivo, Galium aparine; conditions: scale 0 to 100
# How it was run: as §1
# [15] = tested on: bromegrass, downy; test: Test D postemergence; assay type: in vivo, Bromus tectorum; conditions: scale 0 to 100
# How it was run: as §1
# [16] = tested on: lambsquarters; test: Test D postemergence; assay type: in vivo, Chenopodium album; conditions: scale 0 to 100
# How it was run: as §1
# [17] = tested on: pigweed; test: Test D postemergence; assay type: in vivo, Amaranthus retroflexus; conditions: scale 0 to 100
# How it was run: as §1
# [18] = tested on: chamomile; test: Test D postemergence; assay type: in vivo, Matricaria inodora; conditions: scale 0 to 100
# How it was run: as §1
# [19] = tested on: mustard, wild; test: Test D postemergence; assay type: in vivo, Sinapis arvensis; conditions: scale 0 to 100
# How it was run: as §1
# [20] = tested on: radish, wild; test: Test D postemergence; assay type: in vivo, Raphanus raphanistrum; conditions: scale 0 to 100
# How it was run: as §1
structure (smiles),measurement,setting,value
CCc1cc(C(=O)NCC(F)(F)F)nn1Cc1ccnc(SC(F)(F)F)c1 [Compound 214],"Plant response rating, Bluegrass",[1]; 31 g ai/ha,40
same,"Plant response rating, Bluegrass",[1]; 62 g ai/ha,65
same,"Plant response rating, Bluegrass",[1]; 125 g ai/ha,85
same,"Plant response rating, Bluegrass",[1]; 250 g ai/ha,100
same,"Plant response rating, Canarygrass",[2]; 31 g ai/ha,40
same,"Plant response rating, Canarygrass",[2]; 62 g ai/ha,65
same,"Plant response rating, Canarygrass",[2]; 125 g ai/ha,100
same,"Plant response rating, Canarygrass",[2]; 250 g ai/ha,100
same,"Plant response rating, Field Violet",[3]; 62 g ai/ha,100
same,"Plant response rating, Field Violet",[3]; 125 g ai/ha,100
same,"Plant response rating, Field Violet",[3]; 250 g ai/ha,100
same,"Plant response rating, Deadnettle",[4]; 31 g ai/ha,90
same,"Plant response rating, Deadnettle",[4]; 62 g ai/ha,100
same,"Plant response rating, Deadnettle",[4]; 125 g ai/ha,100
same,"Plant response rating, Deadnettle",[4]; 250 g ai/ha,100
same,"Plant response rating, Ryegrass, Italian",[5]; 62 g ai/ha,55
same,"Plant response rating, Ryegrass, Italian",[5]; 125 g ai/ha,70
same,"Plant response rating, Ryegrass, Italian",[5]; 250 g ai/ha,90
same,"Plant response rating, Pigweed",[6]; 62 g ai/ha,100
same,"Plant response rating, Pigweed",[6]; 125 g ai/ha,100
same,"Plant response rating, Pigweed",[6]; 250 g ai/ha,100
same,"Plant response rating, Chamomile",[7]; 31 g ai/ha,50
same,"Plant response rating, Chamomile",[7]; 62 g ai/ha,100
same,"Plant response rating, Chamomile",[7]; 125 g ai/ha,100
same,"Plant response rating, Chamomile",[7]; 250 g ai/ha,100
same,"Plant response rating, Speedwell",[8]; 62 g ai/ha,100
same,"Plant response rating, Speedwell",[8]; 125 g ai/ha,100
same,"Plant response rating, Speedwell",[8]; 250 g ai/ha,100
same,"Plant response rating, Barley, Spring",[9]; 31 g ai/ha,10
same,"Plant response rating, Barley, Spring",[9]; 62 g ai/ha,40
same,"Plant response rating, Barley, Spring",[9]; 125 g ai/ha,65
same,"Plant response rating, Barley, Spring",[9]; 250 g ai/ha,80
same,"Plant response rating, Barley, Winter",[10]; 31 g ai/ha,15
same,"Plant response rating, Barley, Winter",[10]; 62 g ai/ha,35
same,"Plant response rating, Barley, Winter",[10]; 125 g ai/ha,55
same,"Plant response rating, Barley, Winter",[10]; 250 g ai/ha,65
same,"Plant response rating, Buckwheat, Wild",[11]; 31 g ai/ha,35
same,"Plant response rating, Buckwheat, Wild",[11]; 62 g ai/ha,95
same,"Plant response rating, Buckwheat, Wild",[11]; 125 g ai/ha,90
same,"Plant response rating, Buckwheat, Wild",[11]; 250 g ai/ha,100
same,Bluegrass plant response rating,"[12]; Postemergence, 31 g ai/ha",15
same,Bluegrass plant response rating,"[12]; Postemergence, 125 g ai/ha",15
same,Bluegrass plant response rating,"[12]; Postemergence, 250 g ai/ha",20
same,Bluegrass plant response rating,"[12]; postemergence, 62 g ai/ha",15
same,Blackgrass plant response rating,"[13]; Postemergence, 31 g ai/ha",15
same,Blackgrass plant response rating,"[13]; Postemergence, 125 g ai/ha",20
same,Blackgrass plant response rating,"[13]; Postemergence, 250 g ai/ha",70
same,Blackgrass plant response rating,"[13]; postemergence, 62 g ai/ha",15
same,Galium plant response rating,"[14]; Postemergence, 31 g ai/ha",80
same,Galium plant response rating,"[14]; Postemergence, 125 g ai/ha",80
same,Galium plant response rating,"[14]; Postemergence, 250 g ai/ha",100
same,Galium plant response rating,"[14]; postemergence, 62 g ai/ha",80
same,"Bromegrass, Downy plant response rating","[15]; Postemergence, 31 g ai/ha",15
same,"Bromegrass, Downy plant response rating","[15]; Postemergence, 125 g ai/ha",20
same,"Bromegrass, Downy plant response rating","[15]; Postemergence, 250 g ai/ha",20
same,"Bromegrass, Downy plant response rating","[15]; postemergence, 62 g ai/ha",15
same,Lambsquarters plant response rating,"[16]; Postemergence, 31 g ai/ha",65
same,Lambsquarters plant response rating,"[16]; Postemergence, 125 g ai/ha",80
same,Lambsquarters plant response rating,"[16]; Postemergence, 250 g ai/ha",90
same,Lambsquarters plant response rating,"[16]; postemergence, 62 g ai/ha",65
same,Pigweed plant response rating,"[17]; Postemergence, 31 g ai/ha",90
same,Pigweed plant response rating,"[17]; Postemergence, 125 g ai/ha",90
same,Pigweed plant response rating,"[17]; Postemergence, 250 g ai/ha",95
same,Pigweed plant response rating,"[17]; postemergence, 62 g ai/ha",90
same,Chamomile plant response rating,"[18]; Postemergence, 31 g ai/ha",40
same,Chamomile plant response rating,"[18]; Postemergence, 125 g ai/ha",60
same,Chamomile plant response rating,"[18]; Postemergence, 250 g ai/ha",70
same,Chamomile plant response rating,"[18]; postemergence, 62 g ai/ha",40
same,"Mustard, Wild plant response rating","[19]; Postemergence, 31 g ai/ha",70
same,"Mustard, Wild plant response rating","[19]; Postemergence, 125 g ai/ha",100
same,"Mustard, Wild plant response rating","[19]; Postemergence, 250 g ai/ha",100
same,"Mustard, Wild plant response rating","[19]; postemergence, 62 g ai/ha",70
same,"Radish, Wild plant response rating","[20]; Postemergence, 31 g ai/ha",65
same,"Radish, Wild plant response rating","[20]; Postemergence, 125 g ai/ha",70
same,"Radish, Wild plant response rating","[20]; Postemergence, 250 g ai/ha",100
same,"Radish, Wild plant response rating","[20]; postemergence, 62 g ai/ha",65
